The source of these data is patent publication US10640463B2, “Chlorhexidine crystal forms and uses thereof in medicine” (Queen Mary University of London, priority 2016, dated 2020).

Data set [1] is described as follows: Chlorhexidine release from uncoated and polyelectrolyte-encapsulated particles (UV absorption). The conditions noted are these: H2O, water stored and agitated. Type of data set: physicochemical. How it is done:
The content of chlorhexidine in the compound, made from 0.33M CaCl2 and 15 mg/ml chlorhexidine diacetate, was determined by UV-Vis absorption (Lambda 35, Perkin Elmer, USA). […] The chlorohexidine proportion in the spheres (0.33M CaCl2 group) was calculated to be 90%-99.9% when they were co-precipitated from 15 mg/ml chlorhexidine diacetate solution. […] However, after encapsulation polyelectrolyte flakes could be seen on the surface, with the original structure covered (FIG. 11, panel (b)). In order to measure chlorhexidine release over 400 mins, samples were water stored and agitated (Vortex-Genie 2, Germany) for the whole time period. […] There was a linear relationship between chlorhexidine release and time (r2=0.99) FIG. 11, panel (d)).

Data set [2] is described as follows: Chlorhexidine release from HEMA-UDMA resin discs, with or without ultrasound. Type of data set: physicochemical. The protocol: HEMA-UDMA resin was prepared by mixing 64% urethane dimethacrylate (UDMA) (Esschem UK, Lot: 591-22) and 36% hydroxyethyl methacrylate (HEMA) (Aldrich, 128635, Lot: STBC7495V), 0.08% of N,N-dimethyl-P-toluidine (Acros Organics, Lot: A0207283001) and 0.05% dimethylamino ethyl methacrylate (Aldrich, 234907, Lot: BCBF8391V) were added. The mixture was then stirred for 15 min (800 rpm, VWR Stirrer, USA). Finally, camphorquinone (Aldrich, 12, 489-3, Lot: 2338141) was added at the proportion of 0.1%. The mixture was stirred for another 15 min (VWR Stirrer, USA), and then the viscous liquid resin was prepared. Freeze dried chlorhexidine chloride compounds produced in Example 2 (precipitated with 0.33 M CaCl2) were weighed and incorporated within the resin at a loading level of 5% by weight. To explore the effect of different morphology on the release kinetics, chlorhexidine compounds with spherical, needle and flake morphology (from Example 1, FIG. 1, panels (b) and (c)) were incorporated into the resin. Incorporation of the chlorhexidine compounds within the resin was carried out by rotating the mixture contained in a 1 ml tube for 15 s in a Rotomix (120V/60 Hz, 2850 rotations/min) (ESPE RotoMix, USA). Chlorhexidine diacetate was also incorporated in the prepared resin in the same way, with loading rates of 5%, 10% and 15% (weight %). The filled resin was then placed into a Teflon mould (10 mm in diameter ×2 mm thick) and cured through a Mylar film with a curing light (Bluedent LED pen, Bulgaria) (430-490 nm, 600 mW/sq·cm) for 30 s. Then the discs were next weighed on a microbalance (Salter Ander-180A weighing scale, UK), and chlorhexidine content in each disc was calculated.
For the release study, all sample resin discs (HEMA-UDMA) containing chlorhexidine chloride compounds or chlorhexidine diacetate powder prepared in Example 5 were kept in cuvettes containing 3 ml deionized water, and kept at room temperature. And at each time point, solutions were collected for UV absorption tests (Lambda 35, Perkin Elmer, USA) and replaced with fresh deionized water.
For the chlorhexidine chloride compound doped discs (Example 5) chlorhexidine content was fixed at 5%, and ultrasound was exerted. Four groups (five discs in each group) were repetitively treated with ultrasound for 0 s, 10 s, 20 s, 30 s, accordingly, by contacting the ultrasound probe (Piezon Master 400, Swiss, 60 Hz, 45VA) on the disc surface at time points of 1 h, 3 h, 5 h, 15 h, 25 h, 40 h, 65 h, 95 h, 140 h, 205 h. After that, no ultrasound was carried out for all the groups, but release was carried on until the 650 hour time point. The UDMA-HEMA discs containing needle and flake chlorhexidine compounds and chlorhexidine diacetate (FIG. 1, panels (b) and (c), and FIG. 3, panel (g)) were also tested (UV absorption tests) at the same time points (same sample numbers) but without ultrasound treatment. For the chlorhexidine diacetate powder doped discs chlorhexidine content of 5%, 10% and 15% were also analysed, and no ultrasound treatment was carried out.

Data set [3] in a line: Thermo-gravimetric analysis (TGA). Type of data set: physicochemical. The conditions noted are these: TGA at 10° C./min in nitrogen, 50-800° C. How it is done: The chlorhexidine chloride spheres (0.33M CaCl2 group) were analysed by Thermo-gravimetric analysis (TGA Q50, USA). Chlorhexidine diacetate crystals and CaCl2 powder (Sigma-Aldrich, C8106, Lot: SLBF7416V) were tested as comparisons. TGA was carried out at 10° C./min in a nitrogen atmosphere, over a temperature range of 50-800° C. The chlorhexidine proportion was further confirmed by the TGA result. […] The decomposition temperature of the chlorhexidine chloride spheres (210° C.) was higher than the chlorhexidine diacetate crystals (120° C.).

The subject of the next data set is L929 cells. The experiment in a line: Cell proliferation assay (total DNA content, Hoechst 33258). Type of data set: cell-based, mouse. How it is done: To determine any increase in cell numbers over time following chlorhexidine spheres treatment, a cell proliferation assay was performed by analysing the total DNA content using a fluorimetric plate reader based assay (Hoechst dye, R. Rago analytical biochemistry, 1990, 191: 31-34). Briefly, the 96 well plates were collected at 24 and 48 hour time points, washed twice with PBS and stored at −20° C. The cells were thawed to room temperature and 100 μl distilled water was added to each well, incubated for another hour and refrozen to suspend DNA. After 24 hrs, cells were thawed again and 100 μl of the fluorochrome Hoechst 33258 (Sigma-Aldrich, UK) at the concentration 20 μg/ml in THE buffer (2M NaCl) was added to each well. The intensity of the fluorescence was then read at A 350 nm excitation and A 460 nm emissions.

In the case of `Cl.Cl.N=C(NCCCCCCNC(=N)NC(=N)Nc1ccc(Cl)cc1)NC(=N)Nc1ccc(Cl)cc1` [chlorhexidine spheres], the time to dissolution in data set [1] is at most 1 h. Besides, the chlorhexidine release is listed as 1.2% in data set [2] (5% loading, control group without ultrasound (0 s), by 205 hours); 4.6% in data set [2] (5% loading, ultrasound 10 s at each time point, by 205 hours); 10.1% in data set [2] (5% loading, ultrasound 20 s at each time point, by 205 hours); 14.9% in data set [2] (5% loading, ultrasound 30 s at each time point, by 205 hours); around 2.7% in data set [2] (no ultrasound, after 650 hours). Also, in data set [2] (5% loading, deionized water, room temperature, no ultrasound, within 65 hours), the “chlorhexidine released by weight” value worked out at 0.76%. The compound further showed a decomposition temperature in data set [3] of 210 °C. Further, the “effect on L929 cell proliferation (in words)” value was “induces proliferation” in the data set on L929 cells (0.00005% to 0.00025%, 24 and 48 hour treatment); “no proliferation” in the data set on L929 cells (0.0005%, 24 hour treatment). In addition, the “concentrations profoundly reducing cell proliferation” value in the data set with L929 cells (L929 cells) is on record as above 0.0005%. In addition, in the data set with L929 cells (L929 cells), the “concentrations significantly inhibiting proliferation” value is at least 0.001%.
